Entries after “also recorded” stand apart in the source; their conditions may differ.
Columns and labels:
Format in all cases: physicochemical
[1] = 8-week stability assessment at 40 °C/75% RH (XRPD, appearance, chiral HPLC); details: for Chiral Purity: chiral HPLC
Protocol: XRPD analysis was carried out on a PANalytical X'pert pro, scanning the samples between 3 and 35° 2θ. The material was gently ground to release any agglomerates and loaded onto a multi-well plate with Kapton or Mylar polymer film to support the sample. The multi-well plate was then placed into the diffractometer and analyzed using Cu K radiation (α1λ=1.54060 Å; α2=1.54443 Å; β=1.39225 Å; α1: α2 ratio=0.5) running in transmission mode (step size 0.0130° 2θ) using 40 kV/40 mA generator settings.
13. Chiral HPLC Column: Daicel IC (5.0 um, 250*4.6 mm) Column Temperature: 30° C. Injection Volume: 5 μL Flow Rate: 1.0 mL/min Mobile Phase A: 0.01% DEA in n-Hexane Mobile Phase B: EtOH:MeOH=2:8 (v/v) Diluent: Acetonitrile PDA Range: 220 nm Gradient program: […]

[2] = 1-week stability assessment (40 °C/75% RH, 80 °C, ambient light; XRPD, HPLC purity)
Protocol: XRPD analysis was carried out on a sample of 5 g of CHP Hydrate. The sample was weighed in a glass vial, and 6 mL of a 90:10 ethanol/water mixture was added to make a slurry. The mixture was then agitated for approximately 24 hours at ambient temperature and then analyzed by XRPD. […] XPRD analysis was carried out to assess any change in the form of the material.

[3] = Variable temperature and humidity XRPD (VT-/VH-XRPD)
Protocol: VT-/VH-XRPD analysis was carried out on a Philips X'Pert ProMultipurpose diffractometer equipped with a temperature and humidity chamber. The samples were scanned between 4 and 35.99° 2θ using Cu K radiation (α1λ=1.54060 Å; α2=1.54443 Å; β=1.39225 Å; α1:α2 ratio=0.5) running in Bragg-Brentano geometry (step size 0.008° 2θ) using 40 kV/40 mA generator settings. Measurements were performed at each step of the humidity profile below:
Program: 40% RH/ambient temperature—initial scan
• 0% RH/ambient temperature—initial scan, 1-hour hold, scan • 0% RH/80° C.—initial scan, 20-minute hold, scan • 0% RH/80° C.—initial scan, 80-minute hold, scan 11. High Performance Liquid Chromatography-Ultraviolet Detection (HPLC-UV) Instrument: Dionex Ultimate 3000 Column: LC/168 X-Bridge Phenyl Column (150 mm×4.6 mm×3.5 μm) Column Temperature: 30° C. Autosampler Temperature: 5° C. UV wavelength: 220 nm Injection Volume: 5 μL Flow Rate: 1 ml/min Mobile Phase A: 10 mM Ammonium acetate Mobile Phase B: Acetonitrile Diluent: 0.1% TFA in water Gradient program: […]

[4] = 1-week stability assessment (40 °C/75% RH, 80 °C, ambient light; XRPD, HPLC purity); remark: listed apart in the source
[5] = Drug substance stability study, 40±2 °C/75±5% RH (appearance, assay, impurities, chiral, water content, XRPD); details: for XRPD: reference standard of Pattern 2
Protocol: Packaging: Sample at each individual time point was packaged into double Antistatic LDPE bags both secured with cable ties. The sample packed for the same storage condition were stored together within a fiber drum, and closed with metal lid. All packages were prepared in the same fashion and labeled.
Time zero will be the day samples are placed on station. Initial testing results were from the release testing as long as samples are put on station within 30 days of the release test date, otherwise, initial was repeated.
Study Requirements: Total 22.5 g sample (Total 21 g sample if initial test is not needed): • 1.5 g for initial test if needed; • 21 g sample will be divided into 14 parts, 1.5 g for each parts, sample for each part should be weighed into double Antistatic LDPE bags both secured with cable ties. The stability samples for each storage condition are stored together within a fiber drum, closed with metal lid, and then stored at 25±2° C./60+5% RH (9 bags) and 40±2° C./75±5% RH (5 bags), respectively. Sampling Time:
Samples stored not more than 6 months were pulled on schedule date or within 2 business days after the scheduled date. Samples stored more than 6 months were pulled within +2 business days of the scheduled date.
Stability samples stored for one month to one year, and greater than one year were analyzed and completed within 10 and 20 business days after the samples pulled out from stability chamber, respectively. If time zero testing was performed, it was analyzed within 10 business days after study initiation.

Structure (SMILES): O=C1N[C@@H](Cc2cnc[nH]2)C(=O)N2CCC[C@@H]12 [Pattern 2, Pyrrolo [1,2-a]pyrazine-1,4-dione, hexahydro-3-(1H-imidazol-5-ylmethyl)-, hydrate (1:1), (3S, 8aS)-]
- Appearance ([1]; 2-week): White
- Appearance ([1]; 4-week): White
- XRPD form after storage ([1]; 4 weeks, listed as CHP pattern 2): no change in form
- Appearance ([1]; 8-week): White
- XRPD form after storage ([1]; 8 weeks): no change in form
- XRPD form after storage ([1]; 8 weeks, listed as CHP pattern 2): no change in form
- XRPD form after storage ([1]; 8 weeks, listed as pattern 2 CHP): pattern 2 prevailed
- Appearance ([1]; Initial): White
- Chiral Purity ([1]; 2-week): >99.9%
- Chiral Purity ([1]; 4-week): 99.9%
- Chiral Purity ([1]; Initial): 99.9%
- XRPD form after storage ([1]; two weeks (14 days), listed as CHP pattern 2): no change in form
- XRPD form after storage ([2]; 7 days at 40 °C/75% RH): No change in form
- XRPD form after storage ([2]; 7 days at 40 °C/75% RH, listed as pattern 2): remain as pattern 2
- XRPD form after storage ([2]; 7 days at 40 °C/75% RH, listed as pattern 2 CHP): remained as pattern 2
- XRPD form after storage ([2]; 7 days at 80 °C): convert to pattern 1
- XRPD form after storage ([2]; 7 days at 80 °C, listed as pattern 2): dehydration from pattern 2 to pattern 1
- XRPD form after storage ([2]; 7 days at 80 °C, listed as pattern 2 CHP): converted to pattern 1
- XRPD form after storage ([2]; 7 days in ambient light): No change in form
- XRPD form after storage ([2]; 7 days in ambient light, listed as pattern 2): remain as pattern 2
- XRPD form after storage ([2]; 7 days in ambient light, listed as pattern 2 CHP): remained as pattern 2
- VT/VH-XRPD Identity ([3]; Run 1: 40% RH, ambient temperature): stable; also recorded: Pattern 2 was present
- VT/VH-XRPD Identity ([3]; Run 1: 40% RH, ambient temperature, listed as CHP Pattern 2): Pattern 2
- VT/VH-XRPD Identity ([3]; Run 2: 0% RH, ambient temperature, 1-hour hold): remains as Pattern 2; also recorded: Pattern 2 remained
- VT/VH-XRPD Identity ([3]; Run 2: 0% RH, ambient temperature, 1-hour hold, listed as CHP Pattern 2): Pattern 2
- VT/VH-XRPD Identity ([3]; Run 2: 0% RH, ambient temperature, 1-hour hold, listed as CHP pattern 2): Pattern 2 input material remained
- VT/VH-XRPD Identity ([3]; Run 3: 0% RH, 80 °C, 20-minute hold): converted Pattern 2 to Pattern 1; also recorded: pure Pattern 1
- VT/VH-XRPD Identity ([3]; Run 3: 0% RH, 80 °C, 20-minute hold, listed as CHP Pattern 2): Pattern 1
- VT/VH-XRPD Identity ([3]; Run 3: 0% RH, 80 °C, 20-minute hold, listed as CHP pattern 2): changed form which was assigned as pure pattern 1
- VT/VH-XRPD Identity ([3]; Run 4: 0% RH, 80 °C, 80-minute hold): pure Pattern 1 remained
- VT/VH-XRPD Identity ([3]; Run 4: 0% RH, 80 °C, 80-minute hold, listed as CHP Pattern 2): Pattern 1
- VT/VH-XRPD Identity ([3]; Run 4: 0% RH, 80 °C, 80-minute hold, listed as CHP pattern 2): Pure pattern 1 remained
- Purity after 1 week ([4]; HPLC, 40 °C/75% RH): 99.5%
- Purity after 1 week ([4]; HPLC, 80 °C): 99.4%
- Purity after 1 week ([4]; HPLC, Ambient): 99.5%
- Purity of starting material ([4]; HPLC, before storage): 99.5%
- Change in HPLC purity after 7 days ([4]; all conditions (40 °C/75% RH, 80 °C, ambient light)): no drop in purity; also recorded: No change in purity
- Appearance ([5]; 40 ± 2° C./75 ± 5% RH, 1M): Off-white
- Assay by HPLC ([5]; 40 ± 2° C./75 ± 5% RH, 1M): 103.2%
- Chiral, HPLC: chiral impurity (D, D) optical isomer ([5]; 40 ± 2° C./75 ± 5% RH, 1M): (D, D):N, D
- Chiral, HPLC: chiral impurity (D, L) optical isomer ([5]; 40 ± 2° C./75 ± 5% RH, 1M): (D, L):N, D
- Chiral, HPLC: chiral impurity (L, D) optical isomer ([5]; 40 ± 2° C./75 ± 5% RH, 1M): (L, D):N, D
- Chiral, HPLC: chiral purity ([5]; 40 ± 2° C./75 ± 5% RH, 1M): 100.0%
- Impurities, HPLC: H-His-OH ([5]; 40 ± 2° C./75 ± 5% RH, 1M): 0.08%
- Impurities, HPLC: each other individual impurity ([5]; 40 ± 2° C./75 ± 5% RH, 1M): individual < 0.05%
- Water content (KF) ([5]; 40 ± 2° C./75 ± 5% RH, 1M): 7.2%
- Appearance ([5]; 40 ± 2° C./75 ± 5% RH, 3M): Off-white
- Assay by HPLC ([5]; 40 ± 2° C./75 ± 5% RH, 3M): 103.3%
- Chiral, HPLC: chiral impurity (D, D) optical isomer ([5]; 40 ± 2° C./75 ± 5% RH, 3M): (D, D):N, D
- Chiral, HPLC: chiral impurity (D, L) optical isomer ([5]; 40 ± 2° C./75 ± 5% RH, 3M): (D, L):N, D
- Chiral, HPLC: chiral impurity (L, D) optical isomer ([5]; 40 ± 2° C./75 ± 5% RH, 3M): (L, D):N, D
- Chiral, HPLC: chiral purity ([5]; 40 ± 2° C./75 ± 5% RH, 3M): 100.0%
- Impurities, HPLC: H-His-OH ([5]; 40 ± 2° C./75 ± 5% RH, 3M): 0.07%
- Impurities, HPLC: each other individual impurity ([5]; 40 ± 2° C./75 ± 5% RH, 3M): individual < 0.05%
- Water content (KF) ([5]; 40 ± 2° C./75 ± 5% RH, 3M): 7.2%
- Appearance ([5]; 40 ± 2° C./75 ± 5% RH, 6M): Off-white
- Assay by HPLC ([5]; 40 ± 2° C./75 ± 5% RH, 6M): 102.4%
- Chiral, HPLC: chiral impurity (D, D) optical isomer ([5]; 40 ± 2° C./75 ± 5% RH, 6M): (D, D):N, D
- Chiral, HPLC: chiral impurity (D, L) optical isomer ([5]; 40 ± 2° C./75 ± 5% RH, 6M): (D, L):N, D
- Chiral, HPLC: chiral impurity (L, D) optical isomer ([5]; 40 ± 2° C./75 ± 5% RH, 6M): (L, D):0.5%
- Chiral, HPLC: chiral purity ([5]; 40 ± 2° C./75 ± 5% RH, 6M): 99.9%
- Impurities, HPLC: C16081735-D-isomer ([5]; 40 ± 2° C./75 ± 5% RH, 6M): isomer: 0.05%
- Impurities, HPLC: H-His-OH ([5]; 40 ± 2° C./75 ± 5% RH, 6M): 0.06%
- Water content (KF) ([5]; 40 ± 2° C./75 ± 5% RH, 6M): 7.2%
- XRPD ([5]; 40 ± 2° C./75 ± 5% RH, 6M): Conform to reference
- Appearance ([5]; Initial (time zero)): Off-white
- Assay by HPLC ([5]; Initial (time zero)): 103.4%
- Chiral, HPLC: chiral impurity (D, D) optical isomer ([5]; Initial (time zero)): (D, D):N, D
- Chiral, HPLC: chiral impurity (D, L) optical isomer ([5]; Initial (time zero)): (D, L):N, D
- Chiral, HPLC: chiral impurity (L, D) optical isomer ([5]; Initial (time zero)): (L, D):N, D
- Chiral, HPLC: chiral purity ([5]; Initial (time zero)): 100.0%
- Impurities, HPLC: H-His-OH ([5]; Initial (time zero)): 0.07%
- Impurities, HPLC: each other individual impurity ([5]; Initial (time zero)): individual < 0.03%
- Water content (KF) ([5]; Initial (time zero)): 7.4%
- XRPD ([5]; Initial (time zero)): Conform to reference

Reference: patent publication US12534496B2, “Polymorphic forms of Cyclo (-His-Pro) and methods of use to treat kidney disease” (NovMetaPharma Co., Ltd., priority 2018, dated 2026)
